From US20240325330A1, “NEW METHOD TO TREAT ACIDOSIS RELATED DISEASES WITH ACETOACETATE” (INSTITUT NATIONAL DE LA SANTÉ ET DE LA RECHERCHE MÉDICALE, priority 2021, published 2024)

Key:
[1] = system: human monocytes differentiated into macrophages under lactic acidosis (LA-Mφ); test: Oxygen consumption rate (XF96 extracellular flux analyzer); type: cell-based; conditions: LA-Mφ+AcAc compared to LA-Mφ
Protocol: Peripheral blood mononuclear cells (PBMC) were obtained from healthy human volunteers (Blood collection center, Angers, France; agreement ANG-2017-01) by standard density-gradient centrifugation on lymphocyte separation medium (Eurobio, Courtaboeuf, France). CD14+ monocytes were then isolated by positive magnetic cell-sorting (Miltenyi Biotec, Bergisch Gladbach, Germany). Monocytes (1×10^6 cells/mL) were cultured in complete medium (CM) consisting of RPMI 1640 (Lonza, Verviers, Belgium) supplemented with 10% fetal calf serum (FCS) (Eurobio), 2 mM L-glutamine, 1 mM sodium pyruvate, 0.1 mM non-essential amino acids, 10 mM HEPES, 100 U/mL penicillin and 100 μg/mL streptomycin (all from Lonza) in the presence of 50 ng/mL GM-CSF (R&D Systems, Minneapolis, MN). […]
We used an XF96 extracellular flux analyzer (Agilent Technologies, Santa Clara, CA) to determine the bioenergetic profile of cells. […] Oxygen consumption rate (OCR) was recorded, to assess mitochondrial respiratory activity and glycolytic activity. OCR was recorded in basal conditions, and the cells were then treated sequentially with 2 μg/mL oligomycin, and 3 μM carbonyl cyanide p-(trifluoromethoxy) phenylhydrazone (FCCP) (both from Sigma-Aldrich). […]

[2] = system: human monocytes differentiated into macrophages under lactic acidosis (LA-Mφ); test: Autophagy assessed by TEM or molecularly (LC3, p62 western blot, mRNA); type: cell-based; conditions: day 3 LA-Mφ+AcAc relative to Mφ; data not shown
Description: Peripheral blood mononuclear cells (PBMC) were obtained from healthy human volunteers (Blood collection center, Angers, France; agreement ANG-2017-01) by standard density-gradient centrifugation on lymphocyte separation medium (Eurobio, Courtaboeuf, France). CD14+ monocytes were then isolated by positive magnetic cell-sorting (Miltenyi Biotec, Bergisch Gladbach, Germany). […]
Cells were lysed in Trizol reagent (Life Technologies, Thermo Fisher Scientific), and total RNA was extracted with the RNeasy Micro kit (Qiagen, Hilden, Germany) and then reverse-transcribed with the Superscript II reverse transcriptase (Life Technologies). Levels of mRNA encoding the indicated proteins were then analyzed by subjecting the cDNA obtained by reverse transcription to qPCR. Relative quantification was performed by the 2^−ΔΔCT method, with RPS18, EF1A, TBP, RPL13A and PPIA as references. Results are expressed as relative mRNA levels.
Levels of LC3-I, LC3-II, p62, β-actin, AMPKα and pAMPKα were evaluated by western blotting. […] Protein loading was assessed by probing the membrane with a rabbit anti-β-actin antibody (Abcam, Cambridge, UK). Bound antibodies were detected by incubation with 1 μg/mL peroxidase-conjugated anti-rabbit or anti-mouse IgG antibody (Life Technologies) or with an anti-AMPK Ab, with the SuperSignal West Femto system (Thermo Fisher Scientific). […]

U937 cell line = conditions: cited from earlier work

For `CC(=O)CC(=O)[O-].[Li+]` [AcAc, lithium acetoacetate], the OCR consumption [1] is listed as “induced”, the autophagy [2] is listed as “not upregulated” and the “IL-6 and TNF production” value (U937 cell line) is listed as “enhance IL-6 and TNF production”.
